EC50 and Emax data for seven molecules are collected here from patent publication US12180192B2, “Modulators of THR-β and methods of use thereof” (ALIGOS THERAPEUTICS, INC., priority 2019, dated 2024).

Where two headings read alike, the source gives them in different places.

Assay [1] has as its system CPT1A gene expression in Huh-7 cells. The experiment in a line: Huh-7 differential gene expression, CPT1A RT-qPCR (Assay 3). The class given is cell-based. The following applies: Homo sapiens, Huh-7, 24 h; for EC50: read-out: Activity category Assay 3 EC50; for Emax: read-out: Activity category Assay 3 Emax. The protocol:
Huh-7 Differential Gene Expression (Assay 3)
Fetal bovine serum (FBS) was incubated with washed resin (50 mg resin/mL FBS; resin weight is dry weight of resin prior to washing) for 5 hr at room temperature on a rotor. The FBS was separated from the resin via centrifugation and incubated with new, washed resin for 18 h at room temperature on a rotor.
Cell Culture and Drug Treatment
Huh-7 cells were cultured in DMEM (10-013-CM, Corning) supplemented with 10% FBS and 1% Pen-Strep at 37° C. under 5% C02. When 70-80% confluence was reached, the cells were removed by trypsinization. The medium was aspirated from the cell culture dish, the cell monolayer was washed with 1×PBS, and 0.05% trypsin, 0.53 mM EDTA (25-052-CV, Corning) solution was added to the dish. After 3 min incubation, the cells were detached completely by repeatedly pipetting solution onto the monolayer. Equal volume of DMEM supplemented with 10% rFBS and 1% Pen-Strep (TH-depleted DMEM) was added to the dish to inactivate the trypsin. The cell suspension was centrifuged at 350×g at room temperature for 3 min. The supernatant was aspirated out and the cell pellet was resuspended in TH-depleted DMEM. […] After 24 hr incubation, the media was replaced with treatment media. All compounds were serially diluted in DMSO and final concentrations were reached by dilution in TH-depleted DMEM (0.1% DMSO). The cells were incubated in treatment media for 24 hr. Treatments were performed in biological duplicates.
After 24 hr in treatment media, the cells were lysed directly on the culture plates and cDNA was produced using the TaqMan™ Fast Advanced Cells-to-CT™ Kit (A35374, Invitrogen) and following the manufacturer's protocol. RT-qPCR for CPT1A (Hs00912671_m1) and two housekeeping genes, ACTB (Hs01060665_g1) and TFG (Hs02832013_g1), was performed using TaqMan™ Fast Advanced Master Mix. RT-qPCR reactions were run on the qTOWER^3 84 G (Analytik Jena) in technical duplicates.
ΔRn values were obtained from the qPCRsoft384 1.0 software and CPT1A gene expression was quantified via the 2-ΔΔCt method. Dose-response curves were generated using GraphPad Prism 8 using four parameter logistic equation without top constraint to derive EC50 and Emax.
A general note: In qPCR the cycle at which signal appears reflects the starting amount.

The next assay deals with T1, THR beta (Homo sapiens, UniProt P10828).
T1 construct: expressed in transfected cells; host or cells: HEK293T (ATCC CRL-3216)
T1 sequence (P10828 1-461): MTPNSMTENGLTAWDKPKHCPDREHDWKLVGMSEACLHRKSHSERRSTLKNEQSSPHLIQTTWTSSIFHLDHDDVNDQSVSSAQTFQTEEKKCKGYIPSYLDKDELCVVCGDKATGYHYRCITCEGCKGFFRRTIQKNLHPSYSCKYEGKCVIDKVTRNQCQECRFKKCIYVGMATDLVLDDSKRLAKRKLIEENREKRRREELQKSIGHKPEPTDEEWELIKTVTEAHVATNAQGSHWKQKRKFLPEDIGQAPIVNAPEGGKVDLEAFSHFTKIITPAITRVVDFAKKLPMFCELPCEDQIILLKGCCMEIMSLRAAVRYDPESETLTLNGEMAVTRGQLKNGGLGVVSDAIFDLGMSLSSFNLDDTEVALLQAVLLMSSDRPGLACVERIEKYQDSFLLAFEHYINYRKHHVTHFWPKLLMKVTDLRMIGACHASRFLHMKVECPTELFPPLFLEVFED
T1 sequence (P19793 1-462 partner): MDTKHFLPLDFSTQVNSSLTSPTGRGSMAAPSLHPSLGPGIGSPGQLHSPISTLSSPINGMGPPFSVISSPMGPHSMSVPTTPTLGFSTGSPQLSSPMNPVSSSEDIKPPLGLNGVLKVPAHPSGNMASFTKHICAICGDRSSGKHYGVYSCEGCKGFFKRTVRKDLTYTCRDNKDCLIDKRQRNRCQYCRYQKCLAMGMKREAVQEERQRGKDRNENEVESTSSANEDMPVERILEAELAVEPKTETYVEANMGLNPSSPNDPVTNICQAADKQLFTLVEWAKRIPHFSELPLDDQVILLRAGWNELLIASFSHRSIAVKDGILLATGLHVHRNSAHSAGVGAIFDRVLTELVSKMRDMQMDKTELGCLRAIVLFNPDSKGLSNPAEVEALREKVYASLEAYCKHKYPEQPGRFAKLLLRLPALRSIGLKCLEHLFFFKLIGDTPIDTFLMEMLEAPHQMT
The experiment in a line: HEK293T THR beta/RXR luciferase reporter assay (Assay 2). Type of assay: cell-based. The settings on record: for Emax: HEK-293T, Table 5, Assay 2, THRβ, read-out: Activity category Assay 2 THRβ (Emax); for EC50: THR-beta, HEK293T reporter assay, read-out: Activity category Assay 2 (EC50, THR-beta agonist). In a few lines:
(§1)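 HEK293T cells transiently transfected with TRE-luciferase reporter, RXR, and THR alpha or THR beta plasmid; ten five-fold compound dilutions from DMSO added for 18-24 h. One-Glo luminescence read; percent agonism normalized between negative and positive controls.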

Assay [2] has as its target T2, human thyroid receptor alpha ligand-binding domain (LBD) (Homo sapiens, UniProt P10827).
T2 construct: purchased Invitrogen
The assay can be described thus: TR-FRET thyroid receptor alpha coactivator assay (THR biochemical assay, Assay 1). The following applies: for EC50: Table 4, THR-alpha, read-out: Activity category Assay 1 (EC50, THR-alpha agonist activity); for Emax: Table 5, THRα, read-out: Activity category Assay 1 THRα (Emax). In short, it runs like this: (§2)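 GST-tagged human TRβ or TRα LBD, 1 nM final (stated for β), with fluorescein-SRC2-2 coactivator peptide (200 nM) and Tb-anti-GST antibody (2 nM). Agonists serially diluted, 1% DMSO final. 1 h incubation at rt in the dark; TR-FRET read as rise in fluorescein and drop in terbium emission.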
In general terms: In TR-FRET formats the signal depends on donor and acceptor labels being close together.

The target of assay [3] is T3, human thyroid receptor beta ligand-binding domain (LBD) (Homo sapiens, UniProt P10828).
T3 construct: purchased Invitrogen
T3 sequence (P10828 217-461 limits assumed): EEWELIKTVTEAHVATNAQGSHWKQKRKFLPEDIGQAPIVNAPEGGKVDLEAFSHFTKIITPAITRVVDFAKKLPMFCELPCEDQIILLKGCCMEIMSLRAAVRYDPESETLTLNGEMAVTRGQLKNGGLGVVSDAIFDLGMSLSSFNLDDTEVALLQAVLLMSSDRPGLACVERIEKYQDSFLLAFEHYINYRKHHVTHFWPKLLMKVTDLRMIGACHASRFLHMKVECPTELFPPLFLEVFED
The experiment in a line: TR-FRET thyroid receptor beta coactivator assay (THR biochemical assay, Assay 1). The settings on record: for EC50: THR-beta, TR-FRET coactivator assay, read-out: Activity category Assay 1 (EC50, THR-beta agonist); for Emax: Table 5, Assay 1, THRβ, read-out: Activity category Assay 1 THRβ (Emax). In short, it runs like this: as §2

Another assay addresses T4, THR alpha (Homo sapiens, UniProt P10827).
T4 construct: expressed in transfected cells; host or cells: HEK293T (ATCC CRL-3216)
T4 sequence (P10827 1-410 isoform P10827-2): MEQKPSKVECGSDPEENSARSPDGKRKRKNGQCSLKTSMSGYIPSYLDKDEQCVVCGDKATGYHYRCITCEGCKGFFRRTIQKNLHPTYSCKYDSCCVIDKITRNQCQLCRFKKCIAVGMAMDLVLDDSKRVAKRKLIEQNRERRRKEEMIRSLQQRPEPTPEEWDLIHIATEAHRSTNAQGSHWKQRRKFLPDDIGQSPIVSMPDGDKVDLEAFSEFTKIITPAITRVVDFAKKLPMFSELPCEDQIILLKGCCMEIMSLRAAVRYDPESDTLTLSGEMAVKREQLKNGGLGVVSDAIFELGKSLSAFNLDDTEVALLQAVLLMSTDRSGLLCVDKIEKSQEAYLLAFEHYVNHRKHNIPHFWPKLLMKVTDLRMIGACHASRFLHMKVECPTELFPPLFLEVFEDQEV
T4 sequence (P19793 1-462 partner): T1 sequence (P19793 1-462 partner)
The assay can be described thus: HEK293T THR alpha/RXR luciferase reporter assay (Assay 2). The settings on record: Assay 2; for Emax: HEK-293T, Table 5, THRα, read-out: Activity category Assay 2 THRα (Emax); for EC50: Table 4, THR-alpha, read-out: Activity category Assay 2 (EC50, THR-alpha agonist activity). The class given is cell-based. In short, it runs like this: as §1
(In a reporter assay the amount or activity of a reporter protein is the signal.)

Where [4] appears, read: Table 6, Huh-7 cells, CPT1A, 24 hr treatment.

As to `C#Cc1nn(-c2cc(Cl)c(Oc3cc(C(C)C)c(=O)[nH]n3)c(Cl)c2)c(=O)[nH]c1=O` [Compound 11, 2-[3,5-dichloro-4-[(5-isopropyl-6-oxo-1H-pyridazin-3-yl)oxy]phenyl]-6-ethynyl-4H-1,2,4-triazine-3,5-dione], in assay [1] (setting [4]), the EC50 was below 100 nM and the Emax is above 75%.
Regarding `CC(C)c1cc(Oc2c(Cl)cc(-n3nc(CC(=O)O)c(=O)[nH]c3=O)cc2Cl)n[nH]c1=O` [Compound 13, 2-(2-(3,5-dichloro-4-((5-isopropyl-6-oxo-1,6-dihydropyridazin-3-yl)oxy)phenyl)-3,5-dioxo-2,3,4,5-tetra-hydro-1,2,4-triazin-6-yl)acetic acid], in assay [1] (setting [4]), the EC50 was above 100 nM and the Emax was above 75%.
The matching figures for `Nc1nn(-c2cc(Cl)c(Oc3cc(C4CCCC4)c(=O)[nH]n3)c(Cl)c2)c(=O)[nH]c1=O` [Compound 42, 6-amino-2-(3,5-dichloro-4-((5-cyclopentyl-6-oxo-1,6-dihydropyridazin-3-yl)oxy)phenyl)-1,2,4-triazine-3,5(2H,4H)-dione]: below 100 nM and 50 to 75%.
Turning to `CC1(C)CN(c2cc(Oc3c(Cl)cc(-n4nc(N)c(=O)[nH]c4=O)cc3Cl)n[nH]c2=O)C1` [Compound 159, 6-amino-2-(3,5-dichloro-4-[[5-(3,3-dimethylazetidin-1-yl)-6-oxo-1H-pyridazin-3-yl]oxy]phenyl)-4H-1,2,4-triazine-3,5-dione], the Emax was 50 to 75% on THR beta, below 50% in assay [2], below 50% in assay [3] and below 50% on THR alpha. The EC50 on THR beta lay within 50 to 250 nM; in assay [2], 250 to 1000 nM; in assay [3], 50 to 250 nM; on THR alpha, 1000 to 10000 nM.
As for `Nc1nn(-c2cc(Cl)c(Oc3cc(Cc4ccc(=O)[nH]n4)c(=O)[nH]n3)c(Cl)c2)c(=O)[nH]c1=O` [Compound 160, 6-amino-2-[3,5-dichloro-4-([6-oxo-5-[(6-oxo-1H-pyridazin-3-yl)methyl]-1H-pyridazin-3-yl]oxy)phenyl]-4H-1,2,4-triazine-3,5-dione], the Emax (at THR beta; in assay [2]; in assay [3]; at THR alpha) was below 50% in each case. Besides, the EC50 on THR beta was above 10000 nM; in assay [2] it was 1000 to 25000 nM; in assay [3], 1000 to 25000 nM; on THR alpha it was above 10000 nM.
Take `Nc1nn(-c2cc(Cl)c(Oc3cc(Cc4ccc(O)cn4)c(=O)[nH]n3)c(Cl)c2)c(=O)[nH]c1=O` [Compound 161, 6-amino-2-[3,5-dichloro-4-([5-[(5-hydroxypyridin-2-yl)methyl]-6-oxo-1H-pyridazin-3-yl]oxy)phenyl]-4H-1,2,4-triazine-3,5-dione]: the Emax (at THR beta; in assay [2]; in assay [3]; at THR alpha) was below 50% throughout. In addition, the EC50 on THR beta is 1000 to 10000 nM; in assay [2], 250 to 1000 nM; in assay [3], 250 to 1000 nM; at THR alpha, above 10000 nM.
Regarding `N[C@@H](Cc1cc(I)c(Oc2ccc(O)c(I)c2)c(I)c1)C(=O)O` [Compound T3, triiodothyronine, reference compound], in assay [1], the EC50 was below 100 nM and the Emax is above 75%.

As a reminder, the EC50 is the concentration that produces a half-maximal response. A word on the Emax: it is the greatest response seen or fitted, relative to the assay's reference.
